Measured values: patent US11179424B2, “Hyaluronic acid production promoting agent” (Pharma Foods International Co., Ltd., priority 2015, dated 2021)

Tests used:
[1] = system: ex vivo mouse knee joints; assay: Ex vivo hyaluronic acid production in knee joints of mice (Test Example 8); details: 1 mg/mL, one day incubation, ELISA, FIG. 24
Procedure: DMEM/F-12 medium supplemented with 1 mg/mL Phe-Hyp dipeptide, 5% (w/w) FBS, 1% (w/w) penicillin-streptomycin solution, 5 μg/mL transferrin, and 3×10^−8 M sodium selenite was added to each well of a 24-well plate at a volume of 1 mL per well. The femur and tibia were harvested from the right and left hind legs of ddY mice (female, retired). The synovial membrane was incised to expose the cartilage, and the bones were placed in each well so that only the joint was immersed in the medium. The bones were incubated at 37° C. in an atmosphere of 5 vol % CO2 and 95 vol % air for one day. At end of incubation, the supernatants were recovered and centrifuged at 1500×g at 4° C. for 30 minutes. The supernatants were recovered, the amount of hyaluronic acid was measured by ELISA and the results were evaluated. The amount of the hyaluronic acid in the sample addition group was expressed in terms of a relative value, with the amount of hyaluronic acid in the no sample group taken as 100.

[2] = system: Acan mRNA in ATDC5; assay: Cartilage differentiation-related gene expression in chondrogenic cells: Acan (Test Example 7); format: cell-based, mouse; details: 500 μM, insulin 0.1 μg/mL, 3 days, normalized to GAPDH, FIG. 21
Procedure: (§1) The mouse chondrogenic cell line ATDC5 (RIKEN BRC No. RCB0565) was cultured until subconfluence at 37° C. in an atmosphere of 5 vol % CO2 and 95 vol % air in DMEM/F-12 medium supplemented with 5% (w/w) FBS, 1% (w/w) penicillin-streptomycin solution, 5 μg/mL transferrin, and 3×10^−8 M sodium selenite. The cells were collected by trypsin treatment. The collected cells were suspended in fresh DMEM/F-12 medium with the same supplements as above to give a cell suspension (10×10^4 cells/mL). The cell suspension was seeded at a volume of 500 μL in each well of a 24-well plate, and the cells were precultured at 37° C. in an atmosphere of 5 vol % CO2 and 95 vol % air for 2 days. The medium in each well was replaced with fresh DMEM/F-12 medium containing the same supplements as above and the Phe-Hyp dipeptide (at a final concentration of 500 μM) and insulin (at a final concentration of 0.1 μg/mL), and the cells were cultured for 3 days. As a positive control, 10 μg/mL insulin was used. At end of culture, total RNA extraction and cDNA synthesis were performed, the relative mRNA expression levels of cartilage differentiation-related genes were quantified by real-time PCR and were normalized to the GAPDH mRNA expression level, and the results were evaluated. […]

[3] = system: Col X mRNA in ATDC5; assay: Cartilage differentiation-related gene expression in chondrogenic cells: Col X (Test Example 7); format: cell-based, mouse; details: 500 μM, insulin 0.1 μg/mL, 3 days, normalized to GAPDH, FIG. 22
Procedure: as §1

[4] = system: SOX9 mRNA in ATDC5; assay: Cartilage differentiation-related gene expression in chondrogenic cells: SOX9 (Test Example 7); format: cell-based, mouse; details: 500 μM, insulin 0.1 μg/mL, 3 days, normalized to GAPDH, FIG. 20
Procedure: as §1

[5] = system: mouse chondrogenic cell line ATDC5; assay: Cartilage matrix production by chondrogenic cells, Alcian blue (Test Example 6); format: cell-based; details: 500 μM, insulin 0.1 μg/mL, 14 days, FIG. 19
Procedure: The mouse chondrogenic cell line ATDC5 (RIKEN BRC No. RCB0565) was cultured until subconfluence at 37° C. in an atmosphere of 5 vol % CO2 and 95 vol % air in DMEM/F-12 medium supplemented with 5% (w/w) FBS, 1% (w/w) penicillin-streptomycin solution, 5 μg/mL transferrin, and 3×10^−8M sodium selenite. The cells were collected by trypsin treatment. The collected cells were suspended in fresh DMEM/F-12 medium with the same supplements as above to give a cell suspension (50×10^4 cells/mL). The cell suspension was spot-seeded at a volume of 20 μL in each well of a 24-well plate, and the cells were precultured at 37° C. in an atmosphere of 5 vol % CO2 and 95 vol % air for 3 hours. The medium in each well was replaced with fresh DMEM/F-12 medium containing the same supplements as above and the Phe-Hyp dipeptide (at a final concentration of 500 μM) and insulin (at a final concentration of 0.1 μg/mL), and the cells were cultured for 14 days. The cartilage matrix produced by the chondrogenic cells was stained with Alcian blue staining solution, the stained cartilage matrix was quantified with Image J (National Institutes of Health), and the results were evaluated. The amount of the cartilage matrix produced by the chondrogenic cells in the sample addition group was expressed in terms of a relative value, with the amount of the cartilage matrix in the no sample group taken as 100.

[6] = system: has2 mRNA in ATDC5; assay: Cartilage differentiation-related gene expression in chondrogenic cells: has2 (Test Example 7); format: cell-based, mouse; details: 500 μM, insulin 0.1 μg/mL, 3 days, normalized to GAPDH, FIG. 23
Procedure: as §1

Compound: N[C@@H](Cc1ccccc1)C(=O)N1CC(O)C[C@H]1C(=O)O (stereo partly drawn) [Phe-Hyp dipeptide, phenylalanyl-4-hydroxyproline]
- amount of hyaluronic acid produced in ex vivo mouse knee joints [1]: promoted ex vivo hyaluronic acid production
- Acan mRNA expression level [2]: enhanced the expression
- Col X mRNA expression level [3]: enhanced the expression
- SOX9 mRNA expression level [4]: enhanced the expression
- cartilage matrix production by chondrogenic cells (Alcian blue) [5]: promoted cartilage matrix production
- has2 mRNA expression level [6]: enhanced the expression
